Columns and labels:
Thromboxane-A synthase = biological target: T1, Thromboxane-A synthase (Homo sapiens, UniProt P24557); test: biochemical; assay type: tissue-based, Platelet; conditions: platelet;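 further: enzyme inhibition assay with PGH2 supplied as substrate; in other assays of this panel Not Active means under 50% inhibition at 10 µM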
T1 sequence (P24557 whole entry): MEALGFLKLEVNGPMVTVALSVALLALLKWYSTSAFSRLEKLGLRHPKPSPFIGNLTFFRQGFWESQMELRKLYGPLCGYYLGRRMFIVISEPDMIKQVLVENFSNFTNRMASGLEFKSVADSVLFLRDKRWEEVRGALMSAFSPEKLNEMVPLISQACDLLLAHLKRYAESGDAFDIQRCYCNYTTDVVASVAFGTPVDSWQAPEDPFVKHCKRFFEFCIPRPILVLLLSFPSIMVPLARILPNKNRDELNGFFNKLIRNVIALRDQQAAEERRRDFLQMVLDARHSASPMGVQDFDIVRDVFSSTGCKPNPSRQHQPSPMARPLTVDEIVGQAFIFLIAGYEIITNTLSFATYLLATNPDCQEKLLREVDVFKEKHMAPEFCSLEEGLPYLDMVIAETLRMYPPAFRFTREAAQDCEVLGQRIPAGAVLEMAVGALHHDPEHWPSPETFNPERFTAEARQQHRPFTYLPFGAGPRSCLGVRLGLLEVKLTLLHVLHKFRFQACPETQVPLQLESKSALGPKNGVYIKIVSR

[1] = biological target: T2, Receptor-type tyrosine-protein phosphatase C (Homo sapiens, UniProt P08575); design: species or system Escherichia coli;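 further: inhibition of CD45 enzyme activity measured using DiFMUP as substrate; in other assays of this panel Not Active means under 50% inhibition at 10 µM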
T2 sequence (P08575 whole entry): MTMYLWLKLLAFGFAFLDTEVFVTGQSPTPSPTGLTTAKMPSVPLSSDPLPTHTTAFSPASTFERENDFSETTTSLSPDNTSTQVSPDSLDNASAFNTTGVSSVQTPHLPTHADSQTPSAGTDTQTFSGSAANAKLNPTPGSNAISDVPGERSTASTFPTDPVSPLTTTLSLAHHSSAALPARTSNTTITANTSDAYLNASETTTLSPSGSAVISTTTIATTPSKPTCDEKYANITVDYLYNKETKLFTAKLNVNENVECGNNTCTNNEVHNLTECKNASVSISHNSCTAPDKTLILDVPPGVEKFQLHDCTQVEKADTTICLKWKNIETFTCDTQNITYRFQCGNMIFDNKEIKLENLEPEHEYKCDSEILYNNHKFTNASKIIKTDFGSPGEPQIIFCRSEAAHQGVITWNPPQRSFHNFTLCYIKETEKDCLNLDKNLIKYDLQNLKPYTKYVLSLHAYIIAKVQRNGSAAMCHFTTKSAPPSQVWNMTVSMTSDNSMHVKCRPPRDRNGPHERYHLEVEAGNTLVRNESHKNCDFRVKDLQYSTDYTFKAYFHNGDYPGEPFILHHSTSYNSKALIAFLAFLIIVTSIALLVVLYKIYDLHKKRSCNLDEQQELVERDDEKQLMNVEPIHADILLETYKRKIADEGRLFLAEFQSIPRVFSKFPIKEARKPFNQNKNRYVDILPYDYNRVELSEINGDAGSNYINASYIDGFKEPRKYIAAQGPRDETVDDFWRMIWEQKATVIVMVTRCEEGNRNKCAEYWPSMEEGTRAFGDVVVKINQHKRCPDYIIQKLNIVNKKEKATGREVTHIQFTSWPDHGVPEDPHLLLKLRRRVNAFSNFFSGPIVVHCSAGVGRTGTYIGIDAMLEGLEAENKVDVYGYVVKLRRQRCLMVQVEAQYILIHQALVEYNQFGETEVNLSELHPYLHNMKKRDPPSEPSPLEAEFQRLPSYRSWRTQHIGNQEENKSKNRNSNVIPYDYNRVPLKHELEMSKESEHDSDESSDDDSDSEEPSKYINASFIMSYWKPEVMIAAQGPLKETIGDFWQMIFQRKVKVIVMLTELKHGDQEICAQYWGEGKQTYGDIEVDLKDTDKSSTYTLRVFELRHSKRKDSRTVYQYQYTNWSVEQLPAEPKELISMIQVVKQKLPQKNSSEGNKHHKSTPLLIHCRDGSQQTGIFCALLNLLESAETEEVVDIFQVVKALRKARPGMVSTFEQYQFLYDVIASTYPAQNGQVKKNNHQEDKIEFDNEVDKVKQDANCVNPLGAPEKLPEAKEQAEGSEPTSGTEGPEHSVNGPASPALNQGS

[2] = biological target: T3, Cysteinyl leukotriene receptor 1 (Homo sapiens, UniProt Q9Y271); assay type: cell membranes, Membrane; conditions: cho-k1; further: in other assays of this panel Not Active means under 50% inhibition at 10 µM
T3 sequence (Q9Y271 whole entry): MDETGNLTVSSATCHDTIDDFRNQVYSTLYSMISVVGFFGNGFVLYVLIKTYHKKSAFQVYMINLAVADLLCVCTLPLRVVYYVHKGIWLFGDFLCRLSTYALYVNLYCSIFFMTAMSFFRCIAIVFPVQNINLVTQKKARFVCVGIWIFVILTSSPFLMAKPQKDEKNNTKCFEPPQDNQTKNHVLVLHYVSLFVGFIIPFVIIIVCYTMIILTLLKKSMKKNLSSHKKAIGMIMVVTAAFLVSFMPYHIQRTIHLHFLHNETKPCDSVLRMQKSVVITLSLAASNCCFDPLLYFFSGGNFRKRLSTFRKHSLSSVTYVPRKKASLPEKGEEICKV

[3] = biological target: T4, Vasoactive intestinal polypeptide receptor 1 (Homo sapiens, UniProt P32241); assay type: cell membranes, Membrane; conditions: ht-29; further: in other assays of this panel Not Active means under 50% inhibition at 10 µM
T4 sequence (P32241 whole entry): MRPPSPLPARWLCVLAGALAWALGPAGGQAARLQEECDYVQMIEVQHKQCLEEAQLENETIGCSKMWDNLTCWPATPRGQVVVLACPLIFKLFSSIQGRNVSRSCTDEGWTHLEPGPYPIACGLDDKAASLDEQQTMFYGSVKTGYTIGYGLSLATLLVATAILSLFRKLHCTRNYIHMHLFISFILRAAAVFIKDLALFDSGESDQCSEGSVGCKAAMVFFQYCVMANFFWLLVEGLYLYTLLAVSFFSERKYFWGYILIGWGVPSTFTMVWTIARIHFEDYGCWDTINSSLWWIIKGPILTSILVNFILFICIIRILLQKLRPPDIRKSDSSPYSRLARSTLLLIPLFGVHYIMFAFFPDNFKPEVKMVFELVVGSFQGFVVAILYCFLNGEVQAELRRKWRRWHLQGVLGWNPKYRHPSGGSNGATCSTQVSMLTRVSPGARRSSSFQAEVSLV

[4] = biological target: Beta-3 adrenergic receptor (Homo sapiens, UniProt P13945); test: DRUGMATRIX: Adrenergic beta3 radioligand binding (ligand: [125I] Cyanopindolol); assay type: cell membranes, HEK293, Membrane; conditions: hek293; Not Active = under 50% inhibition at 10 µM

Measured: IC50

Sequence of Beta-3 adrenergic receptor (P13945 whole entry): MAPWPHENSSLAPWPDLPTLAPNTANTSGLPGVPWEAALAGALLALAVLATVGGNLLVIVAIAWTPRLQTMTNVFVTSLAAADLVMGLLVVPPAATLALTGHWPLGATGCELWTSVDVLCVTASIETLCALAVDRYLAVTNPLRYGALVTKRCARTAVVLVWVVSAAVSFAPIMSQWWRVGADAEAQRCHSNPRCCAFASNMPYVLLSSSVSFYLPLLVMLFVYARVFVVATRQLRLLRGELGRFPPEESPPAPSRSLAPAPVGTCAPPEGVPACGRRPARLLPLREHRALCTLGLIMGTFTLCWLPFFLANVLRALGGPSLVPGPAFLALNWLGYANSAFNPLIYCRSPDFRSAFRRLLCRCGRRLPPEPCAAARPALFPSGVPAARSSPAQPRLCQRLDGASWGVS

O=C(O)c1ccccc1O [SALICYLIC ACID]
Not Active: all assays above

Source: ChEMBL document CHEMBL1909046, “DrugMatrix in vitro pharmacology data”
